This is an account of results in patent publication US20180371408A1, “CELL CULTURES AND METHODS OF USE” (priority 2017, published 2018).

In data set [1] the test system is Spermatogonial cells (C18-4). As to the kind of experiment: cells. The class given is cell-based, mouse.
The test system of data set [2] is Leydig cells (TM3). Put plainly: cells. The class given is cell-based, mouse.
The subject of data set [3] is Sertoli cells (TM4). As to the kind of experiment: cells. It counts as cell-based, mouse.
For data set [4], the system named is testicular co-culture: spermatogonial cells (C18-4), Sertoli cells (TM4), Leydig cells (TM3). As to conditions: for concentration with statistically significant decrease in viability (p<0.05): 48 h exposure.
For data set [5] the test system is unchanged. As to the kind of experiment: cells. As to conditions: Mus musculus.
Data set [6] relates to reproductive system. The conditions noted are these: cited from earlier work.
Data set [7] deals with reproductive system. As to conditions: cited from earlier work. This is another data set of the same source.
[8] abbreviates: Mus musculus, 24 h, read-out: IC50.
Where [9] appears, read: Mus musculus, 48 h, read-out: IC50.
Setting [10] is: Mus musculus, Leydig, 24 h, read-out: IC50.
The mark [11] stands for this setting: Mus musculus, Leydig, 48 h, read-out: IC50.
[12] abbreviates: co-culture, 48 h treatment, FIG. 6.
[13] abbreviates: based on ToxCast database and literature search.
[14] abbreviates: Spermatogonial Cell, 48 h, highest concentration tested assigned as IC50 where viability did not decrease 50%, read-out: IC50.
Where [15] appears, read: Leydig Cell, 48 h, highest concentration tested assigned as IC50 where viability did not decrease 50%, read-out: IC50.
Setting [16] is: Co-culture, 24 h, highest concentration tested assigned as IC50 where viability did not decrease 50%.
Where [17] appears, read: Co-culture, 48 h, highest concentration tested assigned as IC50 where viability did not decrease 50%.
Setting [18] is: Leydig Cell, 24 h, highest concentration tested assigned as IC50 where viability did not decrease 50%, read-out: IC50.
Setting [19] is: Sertoli Cell, 24 h, highest concentration tested assigned as IC50 where viability did not decrease 50%, read-out: IC50.
Where [20] appears, read: Sertoli Cell, 48 h, highest concentration tested assigned as IC50 where viability did not decrease 50%, read-out: IC50.
[21] abbreviates: Spermatogonial Cell, 24 h, highest concentration tested assigned as IC50 where viability did not decrease 50%, read-out: IC50.

“And” between values parts separate entries of the source, which are not always exact repeats. Identical values can stand only once. Like-named read-outs stand apart in the source and are kept apart here.

For `OB(O)O` [BA, Boric acid], the IC50 was over 5000 µM in data set [1] (Mus musculus, 24 h); 3580 µM in data set [1] (Mus musculus, 48 h); over 5000 µM in data set [2] (Mus musculus, Leydig, 24 h); over 5000 µM in data set [2] (Mus musculus, Leydig, 48 h); over 5000 µM in data set [3] (Mus musculus, 24 h); over 5000 µM in data set [3] (Mus musculus, 48 h). The IC50 in data set [5] (24 h) and in data set [5] (48 h) was over 5000 µM throughout. The “effect on cell viability (NR uptake), in words” value (“effect on cell viability” below) in data set [4] is “statistically significant decreases in cell viability”. Further, the “in vitro call as reproductive toxicant” value in data set [4] is “negative”. Besides, the “In vivo Reproductive Toxicity” value in data set [6] (in vivo) is reported as “+”. Further, the “call in in vivo models” value in data set [6] (in vivo) is “positive”.

On to `CCCCOC(=O)c1ccccc1C(=O)OCc1ccccc1` [BBP, Benzyl butyl phthalate], for which the IC50 in data set [1] (setting [8]), in data set [1] (setting [9]), in data set [2] (setting [10]), in data set [2] (setting [11]), in data set [3] (setting [8]) and in data set [3] (setting [9]) was at least 400 µM each time. Further, the IC50 was 885 µM in data set [5] (24 h) and 539 µM in data set [5] (48 h). The “concentration with statistically significant decrease in viability (p<0.05)” value in data set [4] (co-culture, FIG. 6) was determined as 200 µM. In data set [4] (setting [12]), the “effect on cell viability” value is “dose-dependent decrease of cell viability”. In addition, the “In vivo Reproductive Toxicity” value in data set [6] (setting [13]) is on record as “+”.

On to `O=C(c1ccc2c(c1)C(=O)OC2=O)c1ccc2c(c1)C(=O)OC2=O` [BEN, Benzophenone-3,3′,4,4′-tetracarboxylic dianhydride], for which the “effect on cell viability” value in data set [4] (setting [12]) is listed as “significant dose-dependent decrease of cell viability”. In data set [6] (setting [13]), the “In vivo Reproductive Toxicity” value is on record as “+”.

On to `CCOP(=S)(OCC)Oc1nc(Cl)c(Cl)cc1Cl` [CHL, chlorpyrifos], for which the IC50 in data set [1] (setting [8]) is 118 µM; in data set [1] (setting [9]) it was 96 µM; in data set [2] (setting [10]), 142 µM; in data set [2] (setting [11]), 120 µM; in data set [3] (setting [8]), 212 µM; in data set [3] (setting [9]), 120 µM. Besides, the IC50 in data set [5] (24 h) was 91.5 µM; in data set [5] (48 h), 89 µM; in data set [5] (read-out: IC50 values (mostly)) it was at most 100 µM. Further, in data set [4] (setting [12]), the “effect on cell viability” value was “significant dose-dependent decrease of cell viability”. Further, in data set [6] (setting [13]), the “In vivo Reproductive Toxicity” value was “+”.

As to `O=P1(N(CCCl)CCCl)NCCCO1` (stereo not shown) [CYC, Cyclophosphamide], the IC50 is over 5000 µM in data set [1] (Mus musculus, 24 h); over 5000 µM in data set [1] (Mus musculus, 48 h); over 5000 µM in data set [2] (Mus musculus, Leydig, 24 h); over 5000 µM in data set [2] (Mus musculus, Leydig, 48 h); over 5000 µM in data set [3] (Mus musculus, 24 h); over 5000 µM in data set [3] (Mus musculus, 48 h). Moreover, the IC50 in data set [5] (24 h) and in data set [5] (48 h) was over 5000 µM in each case. For the same compound, in data set [4], the “effect on cell viability” value is listed as “did not cause a significant decrease in cell viability”. Further, the “in vitro call as reproductive toxicant” value in data set [4] is on record as “negative”. In data set [6] (in vivo), the “In vivo Reproductive Toxicity” value is recorded as “+”. The “call in in vivo models” value in data set [6] (in vivo) was “positive”.

As to `CCCCOC(=O)c1ccccc1C(=O)OCCCC` [DBP, Dibutyl phthalate], the IC50 was at least 400 µM in data set [1] (setting [8]); 371 µM in data set [1] (setting [9]); at least 400 µM in data set [2] (setting [10]); at least 400 µM in data set [2] (setting [11]); at least 400 µM in data set [3] (setting [8]); at least 400 µM in data set [3] (setting [9]). Moreover, the IC50 in data set [5] (24 h) is 437 µM; in data set [5] (48 h), 388 µM. In addition, in data set [4] (co-culture, FIG. 6), the “concentration with statistically significant decrease in viability (p<0.05)” value was found to be 200 µM. Moreover, in data set [4] (setting [12]), the “effect on cell viability” value is given as “dose-dependent decrease of cell viability”. In addition, the “In vivo Reproductive Toxicity” value in data set [6] (setting [13]) is listed as “+”.

Consider `CCOC(=O)c1ccccc1C(=O)OCC` [DEP, Diethylphthalate], for which the IC50 in data set [1] (setting [8]), in data set [1] (setting [9]), in data set [2] (setting [10]), in data set [2] (setting [11]), in data set [3] (setting [8]) and in data set [3] (setting [9]) was over 400 µM each time. The IC50 in data set [5] (24 h) and in data set [5] (48 h) was over 400 µM in each case. For the same compound, in data set [4] (setting [12]), the “effect on cell viability” value is “no or slight decrease of cell viability”. In addition, the “In vivo Reproductive Toxicity” value in data set [6] (setting [13]) is listed as “−”. In addition, the “developmental toxicity of phthalates (literature)” value in data set [6] (in vivo) is recorded as “developmental non-toxic”.

On to `CC/C(=C(/CC)c1ccc(O)cc1)c1ccc(O)cc1` [DES, Diethylstilbestrol], for which the “In vivo Reproductive Toxicity” value in data set [6] (setting [13]) is given as “+”. Also, in data set [7] (in rats), the “reproductive LOAEL” value is 10 mg/kg/day.

`COC(=O)c1ccccc1C(=O)OC` [DMP]: in data set [4] (setting [12]), the “effect on cell viability” value is “no or slight decrease of cell viability”. For the same compound, the “developmental toxicity of phthalates (literature)” value in data set [6] (in vivo) is listed as “developmental non-toxic”.

Regarding `CCCCCOC(=O)c1ccccc1C(=O)OCCCCC` [DPP], the IC50 is 372 µM in data set [1] (setting [14]), 244 µM in data set [2] (setting [15]), 550 µM in data set [4] (setting [16]) and 352 µM in data set [4] (setting [17]). Further, the “effect on cell viability” value in data set [4] (setting [12]) was “dose-dependent decrease of cell viability”.

`NC(=O)NO` [HU]: the IC50 in data set [1] (setting [14]) is 300 µM; in data set [2] (setting [18]) it was 600 µM; in data set [2] (setting [15]), 200 µM; in data set [3] (setting [19]), 396 µM; in data set [3] (setting [20]) it was 150 µM; in data set [4] (setting [17]) it was 200 µM. For the same compound, in data set [4] (setting [12]), the “effect on cell viability” value is on record as “statistically significant decreases in cell viability”.

For `O=C1NS(=O)(=O)c2ccccc21` [SAC], the “effect on cell viability” value in data set [4] (setting [12]) was “did not cause a significant decrease in cell viability”.

`Oc1cc(Cl)ccc1Oc1ccc(Cl)cc1Cl` [TCS]: the IC50 in data set [1] (setting [21]) amounted to 62.7 µM; in data set [1] (setting [14]), 57.3 µM; in data set [2] (setting [18]) it was 135 µM; in data set [2] (setting [15]), 80 µM; in data set [3] (setting [19]), 81 µM; in data set [3] (setting [20]), 72.7 µM. Further, the results for the IC50 in data set [4] (setting [16]) and in data set [4] (setting [17]) were 121 µM and 76.5 µM, respectively. Further, the “effect on cell viability” value in data set [4] (setting [12]) is on record as “significant dose-dependent decrease of cell viability”.

Consider `CCCC(CCC)C(=O)[O-].[Na+]` [VPA, Valproic acid sodium salt], for which the IC50 in data set [1] (setting [8]) was over 20000 µM; in data set [1] (setting [9]) it was 6000 µM; in data set [2] (setting [10]), over 20000 µM; in data set [2] (setting [11]), 9480 µM; in data set [3] (setting [8]), over 20000 µM; in data set [3] (setting [9]), 7610 µM. Also, the IC50 was over 20000 µM in data set [5] (24 h) and 8850 µM in data set [5] (48 h). Moreover, in data set [4] (setting [12]), the “effect on cell viability” value is reported as “statistically significant decreases in cell viability”. Further, in data set [6] (setting [13]), the “In vivo Reproductive Toxicity” value is listed as “+”.

Take `C[C@H]1CCCC(=O)CCC/C=C/c2cc(O)cc(O)c2C(=O)O1` [ZEA, Zearalenone]: the IC50 turned out to be 3.8 µM in data set [1] (setting [8]); 2 µM in data set [1] (setting [9]); 3.4 µM in data set [2] (setting [10]); 2.5 µM in data set [2] (setting [11]); 3.1 µM in data set [3] (setting [8]); 2.5 µM in data set [3] (setting [9]). Further, the figures for the IC50 in data set [5] (24 h), in data set [5] (48 h) and in data set [5] (read-out: IC50 values (mostly)) were 7.2 µM, 4.1 µM and at most 100 µM, respectively. Also, the “In vivo Reproductive Toxicity” value in data set [6] (setting [13]) is “+”. The “reproductive LOAEL” value in data set [7] (in rats) is reported as 1 mg/kg/day.

As to Sodium arsenite [As], the IC50 in data set [1] (read-out: IC50) is 6.9 µM and 6.8 µM; in data set [2] (read-out: IC50), 20.3 µM and 16.1 µM; in data set [3] (read-out: IC50), 12 µM and 6.9 µM; in data set [4], 15 µM and 10 µM. Moreover, the “effect on cell viability” value in data set [4] is “most toxic”. The “In vivo Reproductive Toxicity” value in data set [6] (in vivo) is reported as “+”. Further, the “reproductive LOAEL” value in data set [7] (rat, in vivo) is 8 mg/kg/day.

For TCEP, the IC50 is 5110 µM in data set [1] (setting [21]) and 3680 µM in data set [1] (setting [14]). The “effect on cell viability” value in data set [4] (setting [12]) was “statistically significant decreases in cell viability”.
